What was measured:
CT26 MSH2-/- MMRd cells = experiment: viability assay of MMR-deficient MSH2 KO CT26 cells; type: cell-based, mouse; details: MSH2 KO cells compared with parental CT26
CT26 colon cancer cells = experiment: pre-treated CT26 cells implanted in mice randomized to anti PD-1 or IgG isotype control; type: in vivo, mouse
Source text: FIGS. 4A-B. Treatment of colon cancer cells with TMZ and cisplatin induces a high frameshift load leading to the spontaneous immuno-rejection of tumors in a preclinical mouse model. FIG. 4A. […] Treatment with either anti PD-1 or the IgG isotype control was commenced when the tumors reached a volume of 200 mm^3. […] The MSH2 KO cell line was used as a positive control for PD-1 blockade. FIG. 4B. Tumors were subjected to whole exome sequencing at 250x and immunoediting was studied by comparing mutation losses before and after engraftment.
Experiments were performed to examine the effect of PD-1 blockade on the growth of tumors generated following injection of mice with tumor cells that had been pre-treated with either a vehicle control, TMZ alone, cisplatin alone, or TMZ/CDDP combination. 1 million cells from control or treatment groups (pre-treated for 8 weeks) were implanted subcutaneously into mice (n=10) and mice were then randomly assigned to either an anti PD-1 treatment group (treated with anti PD-1 at 6 mg/kg twice weekly when tumor reached 200 mm^3) or an IgG isotype control group. CT26 MSH2 KO cells were used as a positive control (FIG. 4). […] For tumors generated following injection of cells pre-treated with the combination of both temozolomide and cisplatin, out of 10 implanted tumors only one was not rejected (9 out of 10 were rejected). […]

[1] = system: CT26 colon cancer cell line
Description: CT26 cells were treated for 8 weeks by low dose TMZ, CDDP or TMZ/CDDP combination (drugs were removed one week before the experiment).

[NH2][Pt]([NH2])([Cl])[Cl] [CDDP, cisplatin]
cytotoxicity (CT26 MSH2-/- MMRd cells): Higher activity | effect of PD-1 blockade compared with isotype control on tumors from pre-treated cells (CT26 colon cancer cells; anti PD-1 6 mg/kg twice weekly from 200 mm^3): no effect of PD-1 blockade | tumor growth compared to control (CT26 colon cancer cells; cells pre-treated 8 weeks, 1 week wash out): no significant difference in tumor growth compared to control | sensitivity of CT26 cells to single agent [1]: sensitive

Reference: US20230056846A1, “METHODS AND COMPOSITIONS FOR CANCER IMMUNOTHERAPY” (MEMORIAL SLOAN KETTERING CANCER CENTER, priority 2020, published 2023)
